Marks after values point to notes of the source that are not given here.
Assays:
[1] = Pharmacokinetics: plasma and brain concentration in wild type mice; format: in vivo; settings: 1 hour after 40 mg/Kg i.p.
Method: Plasma and brain samples for measuring compounds concentrations were collected at predetermined times from four wild type mice per point. Three time points were measured: 0.25, 0.5 and 1.0 hour. Compounds concentration was measured using a Xevo-TQ MS triple quadropole mass spectrometer with an electrospray ionization (ESI) source and an Acquity UPLC (Waters, Manchester, UK).
Compounds solutions were prepared by dissolving the samples in DMSO and this solution was made up to a final volume by addition of a mixture of Tween 20 and 0.9% NaCl (1/1/8, v:v:v, DMSO/Tween 20/saline). Compounds were injected as a single intraperitoneal injection. Animals were killed by decapitation.
Plasma. Blood was collected into tubes containing EDTA and plasma was collected via centrifugation (4° C., 13200 rpm, 5 min) and stored at −80° C. until analysis.
Brain. Brains were collected immediately after mice death. The brains were excised, weighed and frozen at −80° C. until further process for analysis.
Chromatographic separation was performed by gradient elution at 0.4 mL/min using an Acquity UPLC BEH C18 column (100×2.1 mm, 1.7 μm particle size; Waters). The mobile phase consisted of A: water with 0.1% formic acid, B: methanol with 0.1% formic acid. After 1.5 min at the initial condition of 95% A, solvent B was increased from 5% to 100% over 2 min, maintained at 100% for 1.5 min, then a linear gradient to initial conditions was applied for 0.1 min and maintained for 3.4 minutes to re-equilibrate the column, giving a cycle time of 8.5 min. The autosampler temperature was set at 10° C. and column temperature at 45° C.
Compounds were monitored using a triple quadrupole mass spectrometer equipped with an electrospray ionization interface. For detection and quantification, a capillary voltage of 3.5 kV and a cone voltage of 38 V were used. Source and desolvation temperatures were 150° C. and 650° C., respectively. Ultra-high purity nitrogen was used for cone gas (75 L h^−1) and desolvation gas (1000 L h^−1). The electrospray ionization operated in the positive mode, and the collision gas used was ultra-pure argon at a flow rate of 0.15 mL min^−1.
Quantification was achieved by external calibration using matrix-matched standards. Concentrations were calculated using a weighted least-squares linear regression (W=1/x). Calibration standards were prepared by adding the appropriate volume of diluted solutions of the compound (made in a mixture of methanol and water, 50:50, v:v) to aliquots of 50 uL of blank plasma or to 75 mg of homogenized blank brain. 2% formic acid in acetonitrile was added to precipitate the proteins. The mixture was then agitated for 10 min and centrifuged at 13200 rpm for 5 min at 4° C. […]

[2] = system: AcH3; experiment: In-vivo AcH3 in hippocampus of wild type mice; settings: 1 h after single dose 40 mg/kg i.p.
Method: Another group of animals received the vehicle (1/1/8, v:v:v, DMSO/Tween 20/saline). One hour later, mice were sacrificed by cervical dislocation and their hippocampus was quickly dissected from the brains. Total tissue homogenates were obtained by homogenizing the hippocampus in a cold lysis buffer with protease inhibitors (0.2 M NaCl, 0.1 M HEPES, 10% glycerol, 200 mM NaF, 2 mM Na4P2O7, 5 mM EDTA, 1 mM EGTA, 2 mM DTT, 0.5 mM PMSF, 1 mM Na3VO4 and Complete Protease Inhibitor Cocktail, Roche Diagnostics). The homogenate was then centrifuged at 14,000×g at 4° C. for 20 min and the supernatant aliquoted and stored at −80° C. Total protein concentrations were determined using the BioRad Bradford protein assay (BioRad Laboratories). Protein samples were analyzed as described in the “in vitro” section.

[3] = system: aged-Tg2576 mice; experiment: Memory function in aged-Tg2576 mice: Morris water maze (MWM); format: in vivo; settings: Tg2576 mice (16-18 month), chronic treatment 3-5 weeks, 20 mg/Kg i.p.; retention phase, day 4th; standard error in brackets
From the text: The effect on memory function of compounds of the invention was studied in Tg2576 mice (16-18 month) after a chronic treatment of 3-5 weeks by using two different behavioral tasks: the Fear Conditioning (FC) and the Morris water maze (MWM) test, Table 5 (below)
The MWM test was used to evaluate spatial memory. After treatments, groups of animals underwent spatial reference learning and memory testing in the MWM. The water maze was a circular pool (diameter 1.2 m) filled with water maintained at 20° C. and made opaque by the addition of non-toxic white paint. Mice were trained for three consecutive days (8 trials/day) swimming to a raised platform (visible-platform). No distal visible cues were present during this phase. […] In the probe trials the platform was removed from the pool, and the percentage of time spent in the quadrant where the platform was previously set was recorded. All trials were monitored by a camera above the center of the pool connected to a SMART-LD program (Panlab S.L., Barcelona, Spain) for subsequent analysis of escape latencies, swimming speed, path length and percent time spent in each quadrant of the pool during probe trials. […]

In the case of `CCCc1nn(C)c2c(=O)[nH]c(-c3cc(Cc4ccc(C(=O)Nc5ccccc5N)cc4)ccc3OCC)nc12` [Example 1-11, N-(2-aminophenyl)-4-[[4-ethoxy-3-(1-methyl-7-oxo-3-propyl-6H-pyrazolo[4,3-d]pyrimidin-5-yl)phenyl]methyl]benzamide], the “Crosses BBB?” value [1] is reported as “Yes”, the “C (brain)” value ([1]; standard deviation in brackets) is reported as 1903.4 (565.8)^a nmol/Kg and the “C (plasma)” value ([1]; standard deviation in brackets) is reported as 12132.5 (1762.9)^a nM. The Kp at 1 h ([1]; mouse, brain/plasma, intraperitoneal, read-out: Brain/Plasma ratio) was 0.157, the “AcH3 increment vs basal” value [2] was “++ (basal x1≤(++)<basal x2)” and the “MWM (% of time on right quadrant)” value [3] was 33.83 (2.24)^c %.
